# Results: US20080031811A1, “Method For Preparing Radioactive Film” (DONG WHA PHARM. IND. CO., LTD., priority 2004, published 2008)
# Assay: Thermal characteristic of film (TGA)
# Format: physicochemical
# Settings: measured at 500° C.
# Procedure: The behavior of thermal change according to temperature change in holmium nitrate, polyurethane film, and holmium-165 polyurethane film (Example 13) is measured by using a thermogravimetric analyzer (TGA, […], Germany) and a differential scanning calorimetry (DSC, […], Germany). TGA analyzes the changes in the mass of a substance according to temperature by a thermal decomposition curve. The analysis conditions of TGA are as follows; 30˜600° C. of temperature, 5.0 mg of a substance, 10° C./min of heating rate. Calorie change of a substance according to temperature change is measured by DSC. DSC is measured at the same condition as TGA and the sample is sealed in an aluminum pan under nitrogen atmosphere.
compound,measurement,value
"O=[N+]([O-])[O-].O=[N+]([O-])[O-].O=[N+]([O-])[O-].[Ho+3] [holmium nitrate, ^165Ho(No3)3.5H2O]",Residual weight % after decomposition,37%
